These results are taken from patent US20260297060A1, “COMPOUNDS FOR THE DEGRADATION OF MUTANT BRAF” (C4 THERAPEUTICS, INC., priority 2023, published 2026).

The first assay deals with T1, human bile salt export pump (BSEP) efflux transporter (Homo sapiens, UniProt O95342).
T1 construct: purchased SOLVO Biotechnology Charles River Laboratories, Szeged, Hungary; host or cells: HEK293 (inside out membrane vesicles)
T1 sequence (O95342 whole entry): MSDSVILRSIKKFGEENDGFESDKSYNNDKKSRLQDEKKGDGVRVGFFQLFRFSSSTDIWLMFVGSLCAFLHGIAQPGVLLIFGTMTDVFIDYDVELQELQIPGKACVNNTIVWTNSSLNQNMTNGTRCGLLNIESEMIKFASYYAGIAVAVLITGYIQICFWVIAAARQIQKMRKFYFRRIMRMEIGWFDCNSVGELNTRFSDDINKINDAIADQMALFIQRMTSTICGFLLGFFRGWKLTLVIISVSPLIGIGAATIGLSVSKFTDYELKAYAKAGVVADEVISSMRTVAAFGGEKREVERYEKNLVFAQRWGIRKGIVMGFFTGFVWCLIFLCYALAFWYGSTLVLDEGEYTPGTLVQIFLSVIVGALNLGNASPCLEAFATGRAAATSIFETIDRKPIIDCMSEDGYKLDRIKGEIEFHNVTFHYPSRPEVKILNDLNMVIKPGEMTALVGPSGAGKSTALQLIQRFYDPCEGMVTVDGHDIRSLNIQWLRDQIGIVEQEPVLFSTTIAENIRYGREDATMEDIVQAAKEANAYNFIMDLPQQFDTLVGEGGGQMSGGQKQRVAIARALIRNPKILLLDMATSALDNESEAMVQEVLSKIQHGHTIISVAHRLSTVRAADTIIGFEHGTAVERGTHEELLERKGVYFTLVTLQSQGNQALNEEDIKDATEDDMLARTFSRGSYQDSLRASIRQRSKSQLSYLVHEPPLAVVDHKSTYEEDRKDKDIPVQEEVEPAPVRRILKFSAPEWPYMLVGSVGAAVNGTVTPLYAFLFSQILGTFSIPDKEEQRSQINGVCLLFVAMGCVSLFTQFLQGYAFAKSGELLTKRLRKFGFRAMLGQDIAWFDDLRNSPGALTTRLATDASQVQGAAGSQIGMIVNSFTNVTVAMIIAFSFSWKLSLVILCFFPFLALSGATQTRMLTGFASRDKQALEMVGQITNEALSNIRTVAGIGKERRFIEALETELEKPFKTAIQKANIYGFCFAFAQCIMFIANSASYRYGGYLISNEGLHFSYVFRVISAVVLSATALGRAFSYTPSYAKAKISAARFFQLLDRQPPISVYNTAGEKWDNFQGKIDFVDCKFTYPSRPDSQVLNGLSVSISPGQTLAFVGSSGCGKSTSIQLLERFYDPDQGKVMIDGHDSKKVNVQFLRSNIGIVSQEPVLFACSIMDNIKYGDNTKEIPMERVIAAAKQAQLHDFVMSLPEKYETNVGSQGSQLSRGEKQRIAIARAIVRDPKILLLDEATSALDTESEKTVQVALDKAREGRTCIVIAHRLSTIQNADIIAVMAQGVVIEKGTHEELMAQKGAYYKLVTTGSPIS
The assay can be described thus: BSEP Vesicular Transport Inhibition Assay (IC50 determination). The settings on record: human BSEP (HEK293) vesicles; taurocholate 0.2 μM; 4 mM Mg-ATP; 10 concentrations, 1 replicate. Format: biochemical. On the procedure: The vesicular transport (VT) assays were performed using inside out membrane vesicles derived from HEK293 cells expressing the specified human bile salt export pump (BSEP) efflux transporter. The membrane vesicles were procured from SOLVO Biotechnology Charles River Laboratories, Szeged, Hungary.
The principle of the assay relies on measuring the accumulation of substrate into inside out vesicles containing the efflux transporter. By utilizing inside out vesicles, the ATP-dependent transport of substrate is directed into the vesicular lumen, where low permeability compounds are then essentially trapped.
For the IC50 screen inhibition assay, 10 concentrations of each compound were tested in the presence of ATP (active transport) in 1 replicate.
The solvent control (DMSO) was tested in the presence of ATP (active transport) and in the presence of AMP (background) in 8 replicates.
Vesicular transport inhibition assays were performed using the specific parameters for each transporter inhibition assay described in Table 53.
Table 54 specifies treatment groups and concentration of compounds, that were examined in the vesicular transport inhibition assay. Detailed data of IC50 screen inhibition assay are shown in Table 55 and detailed data of 1 concentration inhibition assay are shown in Table 56.
The vesicular transport inhibition assay was performed with 4 mM Mg-ATP. For the IC50 screen inhibition assay, 10 concentrations of each compound were tested in the presence of ATP in 1 replicate. For the 1 concentration inhibition assay, 1 concentration of each compound was tested in the presence of ATP (active transport) in 2 replicates. The solvent control (DMSO) was tested in the presence of 4 mM Mg-ATP (active transport) and in the presence of 4 mM AMP (background) in 8 replicates.
The BSEP membrane vesicle suspension was mixed with the ice-cold transport buffer, then the taurocholate probe substrate solution was added (Reaction mixture, 50 μL per well). The compounds were added to the reaction mixture at 1.5-times the final assay concentration. […].
Reaction mixtures and the start reagent (Mg-ATP or AMP in transport buffer) were pre-warmed separately for 15 minutes to reach the incubation temperature of 37° C. […]
The reaction was initiated by the addition of the start reagent (25 μL) to the reaction mixture (diluting the reaction mixture to the final concentration). […] After the 5-minute incubation at 37° C., the reaction was stopped by the addition of 250 μL ice-cold washing mix to each well. […]
The samples were then be transferred to a filter plate and washed with 200 μL cold washing mix5-times to remove any free compounds or taurocholate probe substrate. The amount of taurocholate probe substrate inside the filtered vesicles were determined by liquid scintillation counting. […]
For `CCN(C)S(=O)(=O)Nc1ccc(F)c(Oc2ccc3ncn([C@@H]4CCC5(CCN(C6CCC(c7cc8c(cc7F)c(N7CCC(=O)NC7=O)nn8C)CC6)CC5)C4)c(=O)c3c2)c1C#N` (single isomer, unassigned) [Compound 31], the BSEP Inhibition/IC50 is 4.23 µM.
On the same count and under the same terms, under `Cn1nc(N2CCC(=O)NC2=O)c2cc(F)c(N3CC4(CC(N5CCC6(CC5)C[C@@H](n5cnc7ccc(Oc8c(F)ccc(NS(=O)(=O)N9CC%10(CCC%10)C9)c8C#N)cc7c5=O)CO6)C4)C3)cc21` [Compound 254, N-[2-cyano-3-[3-[(3R)-8-[2-[3-(2,4-dioxohexahydropyrimidin-1-yl)-5-fluoro-1-methyl-indazol-6-yl]-2-azaspiro[3.3]heptan-6-yl]-1-oxa-8-azaspiro[4.5]decan-3-yl]-4-oxo-quinazolin-6-yl]oxy-4-fluoro-phenyl]-2-azaspiro[3.3]heptane-2-sulfonamide] stands 1.74 µM; under `CCN(C)S(=O)(=O)Nc1ccc(F)c(Oc2ccc3ncn([C@H]4COC5(CCC(N6CC7(CN(c8ccc(NC9CCC(=O)NC9=O)cc8F)C7)C6)CC5)C4)c(=O)c3c2)c1C#N` (stereo partly drawn) [Compound 30, 6-[2-cyano-3-[[ethyl(methyl)sulfamoyl]amino]-6-fluoro-phenoxy]-3-[(3R)-8-[6-[4-[(2,6-dioxo-3-piperidyl)amino]-2-fluoro-phenyl]-2,6-diazaspiro[3.3]heptan-2-yl]-1-oxaspiro[4.5]decan-3-yl]-4-oxo-quinazoline], 8.52 µM; under `CCN(C)S(=O)(=O)Nc1ccc(F)c(Oc2ccc3ncc([C@@H]4COC5(CCN(C6CCC(c7ccc(NC8CCC(=O)NC8=O)cc7F)CC6)CC5)C4)nc3c2)c1C#N` (single isomer, unassigned) [Compound 60], 7.88 µM.
On the same count and under the same terms, then `COC1CN(S(=O)(=O)Nc2ccc(F)c(Oc3ccc4ncn([C@H]5COC6(CCN(C7CC8(C7)CN(c7cc9c(cc7F)c(N7CCC(=O)NC7=O)nn9C)C8)CC6)C5)c(=O)c4c3)c2C#N)C1` [Compound 246, N-[2-cyano-3-[3-[(3R)-8-[2-[3-(2,4-dioxohexahydropyrimidin-1-yl)-5-fluoro-1-methyl-indazol-6-yl]-2-azaspiro[3.3]heptan-6-yl]-1-oxa-8-azaspiro[4.5]decan-3-yl]-4-oxo-quinazolin-6-yl]oxy-4-fluoro-phenyl]-3-methoxy-azetidine-1-sulfonamide], with 8.79 µM; and `CCN(C)S(=O)(=O)Nc1ccc(F)c(Oc2ccc3ncn(C4CC5(CCN(C6CCC(c7cc8c(cc7F)c(N7CCC(=O)NC7=O)nn8C)CC6F)CC5)C4)c(=O)c3c2)c1C#N` (single isomer, unassigned) [Compound 86], with 9.88 µM.
`CCN(C)S(=O)(=O)Nc1ccc(F)c(Oc2ccc3ncn([C@H]4COC5(CCC(N6CCC(c7cc8c(cc7F)c(N7CCC(=O)NC7=O)nn8C)C(F)(F)C6)CC5)C4)c(=O)c3c2)c1C#N` (single isomer, unassigned) [Compound 39]: the BSEP Inhibition/IC50 is 1.56 µM.
Take `CCN(C)S(=O)(=O)Nc1ccc(F)c(Oc2ccc3ncc([C@H]4COC5(CCN(C6CC7(C6)CN(c6cc8c(cc6F)c(N6CCC(=O)NC6=O)nn8C)C7)CC5)C4)nc3c2)c1C#N` [Compound 158, (3S)-3-[7-[2-cyano-3-[[ethyl(methyl)sulfamoyl]amino]-6-fluoro-phenoxy]quinoxalin-2-yl]-8-[2-[3-(2,4-dioxohexahydropyrimidin-1-yl)-5-fluoro-1-methyl-indazol-6-yl]-2-azaspiro[3.3]heptan-6-yl]-1-oxa-8-azaspiro[4.5]decane]: the BSEP Inhibition/IC50 was determined as 7.53 µM.
On the same count and under the same terms, under `CCN(C)S(=O)(=O)Nc1ccc(F)c(Oc2ccc3ncc([C@H]4COC5(CCN(C6CCC(c7cc8c(cc7F)c(N7CCC(=O)NC7=O)nn8C)CC6F)CC5)C4)nc3c2)c1C#N` (single isomer, unassigned) [Compound 160] stands 1.58 µM.

Still in this assay, the particulars now being: human BSEP (HEK293) vesicles; taurocholate 0.2 μM; 4 mM Mg-ATP; 10 concentrations, 1 replicate; in nM.
Regarding `CCN(C)S(=O)(=O)Nc1ccc(F)c(Oc2ccc3ncn(C4CC5(CCN(C6CCC(c7cc8c(cc7F)c(N7CCC(=O)NC7=O)nn8C)CC6F)CC5)C4)c(=O)c3c2)c1C#N` (single isomer, unassigned) [Compound 83, 6-[2-cyano-3-[[ethyl(methyl)sulfamoyl]amino]-6-fluoro-phenoxy]-3-[7-[4-[3-(2,4-dioxohexahydropyrimidin-1-yl)-5-fluoro-1-methyl-indazol-6-yl]-2-fluoro-cyclohexyl]-7-azaspiro[3.5]nonan-2-yl]-4-oxo-quinazoline], the “BSEP Inhibition/IC50” value is recorded as 14100.
As to `Cn1nc(N2CCC(=O)NC2=O)c2cc(F)c(N3CC4(CC(N5CCC6(CC5)CC(n5cnc7ccc(Oc8c(F)ccc(NS(=O)(=O)C9CCC9)c8C#N)cc7c5=O)C6)C4)C3)cc21` [Compound 259, N-[2-cyano-3-[3-[7-[2-[3-(2,4-dioxohexahydropyrimidin-1-yl)-5-fluoro-1-methyl-indazol-6-yl]-2-azaspiro[3.3]heptan-6-yl]-7-azaspiro[3.5]nonan-2-yl]-4-oxo-quinazolin-6-yl]oxy-4-fluoro-phenyl]cyclobutanesulfonamide], the “BSEP Inhibition/IC50” value is 12760.
Regarding `CCN(C)S(=O)(=O)Nc1ccc(F)c(Oc2ccc3ncc(OCC4CCN(C5CCC(c6cc7c(cc6F)c(N6CCC(=O)NC6=O)nn7C)CC5)CC4)nc3c2)c1C#N` (single isomer, unassigned) [Compound 118, 7-[2-cyano-3-[[ethyl(methyl)sulfamoyl]amino]-6-fluoro-phenoxy]-2-[[1-[4-[3-(2,4-dioxohexahydropyrimidin-1-yl)-5-fluoro-1-methyl-indazol-6-yl]cyclohexyl]-4-piperidyl]methoxy]quinoxaline], the “BSEP Inhibition/IC50” value is above 40000.
As to `Cn1nc(N2CCC(=O)NC2=O)c2cc(F)c(C3CCC(N4CCC5(CC4)CC(n4cnc6ccc(Oc7c(F)ccc(NS(=O)(=O)C8CCCC8)c7C#N)cc6c4=O)C5)CC3)cc21` (single isomer, unassigned) [Compound 93, N-[2-cyano-3-[3-[7-[4-[3-(2,4-dioxohexahydropyrimidin-1-yl)-5-fluoro-1-methyl-indazol-6-yl]cyclohexyl]-7-azaspiro[3.5]nonan-2-yl]-4-oxo-quinazolin-6-yl]oxy-4-fluoro-phenyl]cyclopentanesulfonamide], the “BSEP Inhibition/IC50” value was above 40000.
Regarding `CCN(C)S(=O)(=O)Nc1ccc(F)c(Oc2ccc3ncn([C@H]4CCC5(CCN(C6CCC(c7cc8c(cc7F)c(N7CCC(=O)NC7=O)nn8C)CC6)CC5)C4)c(=O)c3c2)c1C#N` (single isomer, unassigned) [Compound 33], the “BSEP Inhibition/IC50” value worked out at 10060.
On to `Cn1nc(N2CCC(=O)NC2=O)c2cc(F)c(N3CC4(CC(N5CCC6(CC5)CC(n5cnc7ccc(Oc8c(F)ccc(NS(=O)(=O)N9C[C@H]%10C[C@H]%10C9)c8C#N)cc7c5=O)C6)C4)C3)cc21` (stereo partly drawn) [Compound 277, (1R,5S)-N-[2-cyano-3-[3-[7-[2-[3-(2,4-dioxohexahydropyrimidin-1-yl)-5-fluoro-1-methyl-indazol-6-yl]-2-azaspiro[3.3]heptan-6-yl]-7-azaspiro[3.5]nonan-2-yl]-4-oxo-quinazolin-6-yl]oxy-4-fluoro-phenyl]-3-azabicyclo[3.1.0]hexane-3-sulfonamide], for which the “BSEP Inhibition/IC50” value was 11860.
